Experimental data: ChEMBL document CHEMBL5724796, “Tm Shift (DSF) assay results for EUbOPEN Chemogenomics Library” (2024)
Where “and” joins values, the source holds several entries; their conditions need not be identical. Identical values can stand only once. Non-standard residues stand in square brackets, D forms with d. Residues, ends and D or L forms follow the SMILES beside them. *: point of attachment. Benzoyl(4-OPh) = O=C(c1ccc(Oc2ccccc2)cc1)*; Lys(Et2) = CCN(CC)CCCC[C@H](N)C(=O)O; d(aIle) = CC[C@H](C)[C@@H](N)C(=O)O; Gly(cPent) = N[C@H](C(=O)O)C1CCCC1; Cbz = O=C(OCc1ccccc1)*; NH(propargyl) = C#CCN*; CH2F = FC*

Tests used:
[1] = biological target: Fibroblast growth factor receptor 2 (Homo sapiens) (UniProt P21802); conditions: Compound concentration 20.0 uM
Description: Thermal Shift Assay. Domain: start/stop: T457-E768

[2] = biological target: T1, Peregrin (Homo sapiens) (UniProt P55201); conditions: Compound concentration 20.0 uM
T1 sequence (whole entry): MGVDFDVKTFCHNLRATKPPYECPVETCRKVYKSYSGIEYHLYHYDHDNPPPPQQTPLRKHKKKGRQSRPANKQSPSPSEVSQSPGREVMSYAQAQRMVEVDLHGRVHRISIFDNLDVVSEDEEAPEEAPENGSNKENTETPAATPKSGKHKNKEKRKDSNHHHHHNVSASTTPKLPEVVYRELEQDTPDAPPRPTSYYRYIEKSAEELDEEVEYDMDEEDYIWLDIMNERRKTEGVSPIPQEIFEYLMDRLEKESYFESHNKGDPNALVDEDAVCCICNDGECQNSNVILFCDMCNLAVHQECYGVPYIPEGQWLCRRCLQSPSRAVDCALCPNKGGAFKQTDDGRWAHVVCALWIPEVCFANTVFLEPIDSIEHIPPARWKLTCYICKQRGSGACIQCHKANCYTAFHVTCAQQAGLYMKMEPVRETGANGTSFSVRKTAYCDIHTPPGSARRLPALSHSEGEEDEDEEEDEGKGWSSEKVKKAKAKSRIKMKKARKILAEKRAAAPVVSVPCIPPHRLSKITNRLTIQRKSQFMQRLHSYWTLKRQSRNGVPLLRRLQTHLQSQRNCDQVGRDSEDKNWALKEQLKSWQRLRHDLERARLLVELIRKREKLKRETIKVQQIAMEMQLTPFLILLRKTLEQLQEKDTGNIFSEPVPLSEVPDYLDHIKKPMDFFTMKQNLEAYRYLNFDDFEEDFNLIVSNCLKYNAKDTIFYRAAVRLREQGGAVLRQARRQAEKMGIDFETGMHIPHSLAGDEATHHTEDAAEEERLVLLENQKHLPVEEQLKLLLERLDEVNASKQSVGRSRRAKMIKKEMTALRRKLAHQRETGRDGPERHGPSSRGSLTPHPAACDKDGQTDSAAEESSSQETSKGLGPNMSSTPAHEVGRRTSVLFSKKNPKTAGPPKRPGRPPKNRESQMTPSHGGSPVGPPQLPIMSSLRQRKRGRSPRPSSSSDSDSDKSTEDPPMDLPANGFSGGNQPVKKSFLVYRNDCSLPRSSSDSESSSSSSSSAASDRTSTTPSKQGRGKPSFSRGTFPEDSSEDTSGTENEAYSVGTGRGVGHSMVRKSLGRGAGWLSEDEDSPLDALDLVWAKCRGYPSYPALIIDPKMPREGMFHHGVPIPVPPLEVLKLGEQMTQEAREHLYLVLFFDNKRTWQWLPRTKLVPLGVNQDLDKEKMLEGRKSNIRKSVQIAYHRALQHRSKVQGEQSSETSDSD

Fibroblast growth factor receptor 2 (Homo sapiens), sequence (P21802 22-821 limits assumed): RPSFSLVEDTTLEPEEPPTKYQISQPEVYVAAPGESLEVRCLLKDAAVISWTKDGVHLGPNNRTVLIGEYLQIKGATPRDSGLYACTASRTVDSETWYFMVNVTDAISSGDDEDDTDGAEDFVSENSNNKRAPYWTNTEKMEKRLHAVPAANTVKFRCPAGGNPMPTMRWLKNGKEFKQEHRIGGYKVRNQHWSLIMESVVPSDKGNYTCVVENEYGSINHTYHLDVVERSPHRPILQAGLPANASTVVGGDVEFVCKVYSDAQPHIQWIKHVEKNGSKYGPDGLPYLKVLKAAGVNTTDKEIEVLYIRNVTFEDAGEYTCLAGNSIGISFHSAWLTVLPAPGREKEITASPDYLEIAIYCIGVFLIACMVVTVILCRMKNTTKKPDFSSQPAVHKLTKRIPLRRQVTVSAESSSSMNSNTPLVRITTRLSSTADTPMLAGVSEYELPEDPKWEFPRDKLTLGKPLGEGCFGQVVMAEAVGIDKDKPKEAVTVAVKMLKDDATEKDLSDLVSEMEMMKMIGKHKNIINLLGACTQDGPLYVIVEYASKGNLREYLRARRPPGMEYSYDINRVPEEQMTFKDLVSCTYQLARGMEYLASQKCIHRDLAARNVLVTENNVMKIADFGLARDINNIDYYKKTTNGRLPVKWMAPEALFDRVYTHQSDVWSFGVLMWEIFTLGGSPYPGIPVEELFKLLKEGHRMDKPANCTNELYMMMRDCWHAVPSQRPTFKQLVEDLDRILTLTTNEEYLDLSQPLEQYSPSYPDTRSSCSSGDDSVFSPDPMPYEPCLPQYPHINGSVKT

Row | SMILES | ΔTm [1] | ΔTm [2]
1 | CCC[C@H]1CNCc2c1[nH]c(=O)c(C#N)c2N1CCC2(CC1)CC2 | 0.92 °C | -0.83 °C
2 | COc1cc(C)[nH]c(=O)c1CNC(=O)c1c(C)n([C@H](C)C2CCN(CC(F)(F)F)CC2)c2ccccc12 | 0.91 °C | -1.59 °C
3 | Cc1c(CN2CCC(Nc3ncnc4sc(CC(F)(F)F)cc34)CC2)ccc2c1cc(C#N)n2Cc1cn[nH]c1 | -1.27 °C | 2.02 °C
4 | COc1ccc(OC)c(-c2nnc3n2N=C(c2ccc(OC)c(OC)c2)CS3)c1 | 0.4 °C | 0.8 °C
5 | CC(C)[C@H](NC(=O)OCc1ccccc1)C(=O)NC(CC(=O)O)C(=O)CF (some centres not stated) | 0.74 °C | -1.71 °C
6 | CNC(=O)c1cc(C(=O)NC2CC2)cn(Cc2ccccc2)c1=O | -1.38 °C | 0.73 °C
7 | COc1ccc(CNc2nc(N3CCC[C@H]3CO)ncc2C(=O)NCc2ncccn2)cc1Cl | -0.2 °C | 0.12 °C
8 | CCN(CC)C(=O)/C(C#N)=C/c1cc(O)c(O)c([N+](=O)[O-])c1 | 0.06 °C | 1.31 °C
9 | CC(=O)N[C@@H](CC(=O)O)C(=O)N[C@@H](CC(N)=O)C(=O)N[C@@H](CC(C)C)C(=O)N[C@H](C=O)CC(=O)O | 0.44 °C | 1.79 °C
10 | CC(=O)C(=Cc1cc(O)c(O)c([N+](=O)[O-])c1)C(C)=O | -0.23 °C | 0.33 °C
11 | N#Cc1ccc(-c2csc(NN=C3CCCC3)n2)cc1 | 0.36 °C | -0.85 °C
12 | CN(Cc1cc(Br)cc(Br)c1N)C1CCCCC1 | -0.25 °C | 1.45 °C
13 | C[C@]1(c2nc3c(C(N)=O)cccc3[nH]2)CCCN1 | -0.4 °C | 1.27 °C
14 | Cc1cc(S(C)(=O)=O)c(S(C)(=O)=O)cc1C(=O)NC(=N)N | 0 °C | 2.74 °C
15 | O=C(CCCCCCNC(=O)c1cnc(N(c2ccccc2)c2ccccc2)nc1)NO | -0.22 °C | -1.39 °C
16 | CC(=O)N[C@@H](C)C(=O)N[C@@H](CCC(=O)O)C(=O)N[C@H](C(=O)N[C@@H](C=O)CC(=O)O)C(C)C | 0.19 °C | -1.79 °C
17 | CCS(=O)(=O)Cc1cnc(Oc2ccc(F)cc2F)c(-c2cc(C)c3c(=O)[nH]ccn23)c1 | 0.35 °C | 2.87 °C
18 | CC(C)CCn1c(CN2CCN(C(=O)C3CC3)CC2)nc2c1c(=O)n(C)c(=O)n2C | -0.8 °C | 1.75 °C
19 | CNC(=O)N1CCc2c(c(N3CCCc4cc(-c5cnn(C)c5)c(C(F)F)cc43)nn2C2CCOCC2)C1 | -0.44 °C | -0.21 °C
20 | COc1cn(-c2ccc(-n3cccn3)cc2F)nc(-c2ccnn2-c2ccccc2)c1=O | 0.54 °C | 1.13 °C
21 | OC[C@H]1O[C@@H](c2ccc(Cl)c(Cc3ccc(OCCOC4CC4)cc3)c2)[C@H](O)[C@@H](O)[C@@H]1O | -0.3 °C | 0.43 °C

Row | SMILES | ΔTm [1] | ΔTm [2]
22 | O=C(N(CCc1ccccc1)C1CCCCC1)n1ncc(-c2ccc(OC(F)(F)F)cc2)n1 | -0.24 °C | 1.62 °C
23 | O=C1/C(=N/Nc2ccc(S(=O)(=O)O)cc2)C(c2ccc([N+](=O)[O-])cc2)=NN1c1ccccc1 | 0.4 °C | 0.37 °C
24 | CC(C)(C)OC(=O)N1CCN(C(=O)n2cc(-c3ccc(OC(F)(F)F)cc3)nn2)C(Cc2ccccc2)C1 (configuration not stated) | -0.77 °C | 0.21 °C
25 | O=c1[nH]c(CS[C@H]2CC[C@H](O)CC2)nc2cc(OCC3CC3)cc(F)c12 | -0.27 °C | -0.24 °C
26 | C=CCO/N=C1\c2ccccc2-c2nc(C#N)c(C#N)nc21 | 0.66 °C | 2.37 °C
27 | O=S(=O)(O)c1ccc2cc(/N=N/c3cc(S(=O)(=O)O)c4cccnc4c3O)ccc2c1 | -0.08 °C | -0.89 °C
28 | O=C(NC(Cc1ccccc1)C(=O)NC(Cc1ccccc1)C(=O)CF)OCc1ccccc1 (stereo not drawn) (Cbz-Phe-Phe-CH2F; configuration not given here) | 0.39 °C | 1.77 °C
29 | C[C@@H]1OC(=O)NN=C1c1ccc(-c2ccc(F)cc2)c(C(F)(F)F)c1 | -0.74 °C | 0.4 °C
30 | CN1C(=O)c2c(nn(Cc3ccc(-c4cccc(F)n4)cc3)c2Nc2ccccc2)N2C1=N[C@@H]1CCC[C@@H]12 | -0.21 °C | -0.45 °C
31 | c1cncc(-c2cnn[nH]2)c1 | 0.33 °C | 0.36 °C
32 | CC(C)C(=O)c1c(C(C)C)nn2ccccc12 | -0.49 °C | 0.32 °C
33 | O=C(O)/C(S)=C/c1c[nH]c2ccc(F)cc12 | 0.66 °C | -0.77 °C
34 | C/C=C1\NC(=O)[C@H]2CSSCC/C=C/[C@H](CC(=O)N[C@H](C(C)C)C(=O)N2)OC(=O)[C@H](C(C)C)NC1=O | 0.1 °C | 0 °C
35 | CC(=O)N[C@@H](CC(=O)O)C(=O)N[C@@H](CCC(=O)O)C(=O)N[C@H](C(=O)N[C@H](C=O)CC(=O)O)C(C)C | -0.22 °C | -1.4 °C
36 | C[C@H](NC(=O)c1cn(C2(C#N)CC2)cn1)C(=O)Nc1nc(-c2cccc(-c3ccn(C)n3)c2)cs1 | 0.8 °C | -0.85 °C
37 | COC[C@@H]1CCCN1S(=O)(=O)c1ccc2c(c1)C(=O)C(=O)N2 | 0.48 °C | -0.85 °C
38 | Cc1cc(Cn2c(=O)n(Cc3cnc(C)s3)c(=O)c3cc(S(=O)(=O)NC4(C)CC4)ccc32)n(C)n1 | 0.47 °C | -1.12 °C
39 | CCn1c(=S)[nH]c2cc3c(NCc4ccccc4N4CCC(CO)CC4)ncnc3cc21 | -0.06 °C | 1.64 °C
40 | CN1C[C@@H]2[C@H](C1)[C@H]2CN(Cc1ccc(F)c(Cl)c1)C(=O)c1cn(C)cn1 | 0.05 °C | 1.67 °C
41 | Cc1cccc(N/N=C(\C(=O)c2cccs2)C(=O)C(F)(F)F)c1 | -0.22 °C | 1.4 °C
42 | CC(C)Cc1nn(C)c(=O)c2c(SCCCO)n(Cc3cccc4ccccc34)cc12 | 0.03 °C and -0.58 °C | -2.75 °C and -3.63 °C

Row | SMILES | ΔTm [1] | ΔTm [2]
43 | O=C(O)CCNc1cc(N2CCc3ccccc3CC2)nc(-c2cccnc2)n1 | 0.9 °C | -1.01 °C
44 | Cc1ncc(Cl)cc1NCc1ccc(C(=O)N[C@@H](CC2CCCC2)C(=O)NC2CC2)s1 | 1.09 °C | -0.65 °C
45 | CCc1c(C)nc(-c2ccc(Cl)s2)nc1Nc1ccc(CC(=O)O)cc1 | -0.19 °C | 1.24 °C
46 | CC#C[C@]1(O)CC[C@H]2[C@@H]3CCC4=CC(=O)CCC4=C3[C@@H](c3ccc(N(C)C)cc3)C[C@@]21C | 0.14 °C | -2.63 °C
47 | CS(=O)(=O)n1cc2c(n1)CN([C@H]1CO[C@H](c3cc(F)ccc3F)[C@@H](N)C1)C2 | -0.38 °C | 1.17 °C
48 | O=C(Nc1c(Cl)cncc1Cl)c1ccc(OC(F)F)c(OCC2CC2)c1 | 0.95 °C | 0.52 °C
49 | Cc1sc(C(=O)c2cncnc2N[C@@H]2C[C@H](COS(N)(=O)=O)[C@@H](O)C2)cc1[C@@H]1NCCc2ccc(Cl)cc21 | 0.33 °C | -1.17 °C
50 | CC(=O)N1CCC(c2ccc(C(=O)NC(=N)N)cc2C(F)(F)F)CC1 | 0.33 °C | 1.3 °C
51 | O=C(CCCCCCNC(=O)c1cnc(N(c2ccccc2)c2ccccc2Cl)nc1)NO | 0.65 °C | -1.49 °C
52 | COc1ccc2c(c1)OC(C)(C)C(c1ccccc1)C2c1ccc(OCCN2CCCC2)cc1 (configuration not stated) | 0.15 °C | -2.59 °C
53 | COCc1nc(C(F)(F)F)[nH]c1-c1cc(C(=O)N2CC(c3ccc(C#N)cc3)C2)c(C)cc1C | 0.03 °C | 1.19 °C
54 | c1ccc(Cn2c(-c3ccc(OC[C@H](C4CCNCC4)n4c(-c5ccccc5)nc5ccccc54)cc3)nc3ccccc32)cc1 | -8.18 °C | -5.25 °C
55 | COc1cc(-c2cn(C)c(=O)c3cnccc23)cc(OC)c1CN(C)CC(=O)NCCOCCOCCNc1cccc2c1C(=O)N(C1CCC(=O)NC1=O)C2=O (configuration not stated) | 0.52 °C | -0.56 °C
56 | O=C1c2ccccc2C(=O)c2oc(-c3cccnc3)nc21 | -0.95 °C | 2.45 °C
57 | CS(=O)(=O)N1CCN(C(=O)c2cnc3ccc(F)cc3c2N2CCC(C#N)(c3ccccc3)CC2)CC1 | -4.51 °C | 1.45 °C
58 | Nc1cccc(Nc2ncc(-c3ccc(Cl)cc3)o2)c1 | 2.1 °C | 4.7 °C
59 | C#CCNC(=O)[C@H](CO)NC(=O)[C@H](CCCCN(CC)CC)NC(=O)[C@H](NC(=O)[C@@H](NC(=O)c1ccc(Oc2ccccc2)cc1)C1CCCC1)[C@@H](C)CC ({Benzoyl(4-OPh)}-[Gly(cPent)][d(aIle)][Lys(Et2)]S-{NH(propargyl)}) | -1.33 °C | -0.64 °C
60 | Nc1ncnc2nc(-c3ccc(N4CCOCC4)nc3)cc(-c3cccc(Br)c3)c12 | 0.52 °C | -0.37 °C
61 | C[C@H](CN[C@@H](C(=O)Nc1ccc(-c2cnn(C)c2)cn1)c1ccccc1)c1ccc(C#N)cc1 | 0.96 °C | -3.43 °C
